Consider 24 compounds from patent publication US10654834B2 (Venenum Biodesign, LLC, priority 2016, dated 2020).

Structures are written as SMILES.

In one assay the target is T1, human TGR5 receptor (Homo sapiens, UniProt Q8TDU6).
T1 construct: host or cells: CHO-K1 (hTGR5-CHO)
T1 sequence (Q8TDU6 1-330): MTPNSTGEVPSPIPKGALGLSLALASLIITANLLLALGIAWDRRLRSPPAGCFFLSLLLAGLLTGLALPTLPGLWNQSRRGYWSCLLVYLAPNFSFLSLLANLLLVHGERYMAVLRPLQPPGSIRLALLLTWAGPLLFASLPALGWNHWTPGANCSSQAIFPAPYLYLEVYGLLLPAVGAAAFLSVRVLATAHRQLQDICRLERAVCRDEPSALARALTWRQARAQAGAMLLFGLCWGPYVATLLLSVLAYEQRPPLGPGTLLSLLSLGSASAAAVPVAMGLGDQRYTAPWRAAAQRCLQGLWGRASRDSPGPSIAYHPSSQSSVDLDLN
The assay can be described thus: Human TGR5 cAMP production assay (hTGR5-CHO cells, DiscoveRx cAMP XS+ kit). The format is cell-based. The settings on record: luminescent cAMP assay, read-out: Human TGR5 Lum. cAMP Activity (EC50). The procedure, abridged:
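CHO-K1 cells stably expressing hTGR5, in PBS with IBMX and cAMP antibody, treated with half-log compound dilutions for 1 h at room temperature. cAMP measured by enzyme-fragment complementation luminescence after overnight detection; EC50 values reported.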
On the technique in general: Changes in cAMP serve as a functional read-out for many G protein-coupled receptors.

Another assay concerns the target T2, mouse TGR5 receptor (Mus musculus, UniProt Q80SS6).
T2 construct: host or cells: HEK293-EBNA (293 c18, ATCC CRL10852)
T2 sequence (Q80SS6 1-329): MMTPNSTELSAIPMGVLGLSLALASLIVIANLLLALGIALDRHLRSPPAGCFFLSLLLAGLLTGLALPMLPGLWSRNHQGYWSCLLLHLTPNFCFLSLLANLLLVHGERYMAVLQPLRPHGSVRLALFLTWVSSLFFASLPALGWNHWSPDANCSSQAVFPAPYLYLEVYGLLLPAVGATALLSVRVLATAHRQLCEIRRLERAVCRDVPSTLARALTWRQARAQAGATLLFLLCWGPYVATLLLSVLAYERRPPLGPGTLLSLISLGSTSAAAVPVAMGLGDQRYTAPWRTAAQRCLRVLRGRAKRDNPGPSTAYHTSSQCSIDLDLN
Kind of assay: Mouse TGR5 luminescent cAMP production assay (HEK293-EBNA cells, DiscoveRx cAMP XS+ kit). Particulars: HEK293-EBNA cells overexpressing mouse TGR5, luminescent cAMP assay; read-out: Mouse TGR5 Lum. cAMP Activity (EC50). The format is cell-based. In outline: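 HEK293-EBNA cells stably expressing mouse TGR5, resuspended in serum-free DMEM with 500 μM IBMX, were premixed 20 min with cAMP antibody, then exposed to half-log compound dilutions for 1 h at room temperature. cAMP was read by luminescent enzyme-fragment complementation (cAMP XS+) after overnight incubation; EC50 derived.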

Regarding `CC(=O)N(C)CC1CCN(c2cc(N3CCC[C@H]3C(=O)NCCc3ccc(C#N)cc3)nc(C(F)(F)F)n2)CC1` [Compound 54, (S)-N-(4-cyanophenethyl)-1-(6-(4-((N-methylacetamido)methyl)piperidin-1-yl)-2-(trifluoromethyl)pyrimidin-4-yl)pyrrolidine-2-carboxamide], the EC50 was 100 to 999 nM on human TGR5 receptor and under 100 nM on mouse TGR5 receptor.

For `CN1CCC(Oc2cc(N3CCC[C@H]3C(=O)NCCc3ccc(C#N)cc3)nc(C(F)(F)F)n2)CC1` [Compound 39, (S)—N-(4-cyanophenethyl)-1-(6-((1-methylpiperidin-4-yl)oxy)-2-(trifluoromethyl)pyrimidin-4-yl)pyrrolidine-2-carboxamide], the EC50 was 100 to 999 nM at human TGR5 receptor and under 100 nM on mouse TGR5 receptor.

Take `N#Cc1ccc(CCNC(=O)[C@@H]2CCCN2c2cc(-c3ccc4[nH]ccc4c3)nc(C(F)(F)F)n2)cc1` [Compound 157, (S)-1-(6-(1H-indol-5-yl)-2-(trifluoromethyl)pyrimidin-4-yl)-N-(4-cyanophenethyl)pyrrolidine-2-carboxamide]: the EC50 on human TGR5 receptor was 100 to 999 nM; at mouse TGR5 receptor it was under 100 nM.

For `O=C(NCCc1ccc(C(F)(F)F)cc1)[C@@H]1CCCN(c2cc(OC3CCOCC3)nc(C(F)(F)F)n2)C1` [Compound 335, (R)-1-(6-((tetrahydro-2H-pyran-4-yl)oxy)-2-(trifluoromethyl)pyrimidin-4-yl)-N-(4-(trifluoromethyl)-phenethyl)piperidine-3-carboxamide], the EC50 on human TGR5 receptor and on mouse TGR5 receptor was 100 to 999 nM throughout.

On to `CC(C)(C)OC(=O)N1CCC(Oc2cc(N3CCC[C@H]3C(=O)NCCc3ccc(C#N)cc3)nc(C(F)(F)F)n2)CC1` [Compound 45, (S)-tert-butyl 4-((6-(2-((4-cyanophenethyl)carbamoyl)pyrrolidin-1-yl)-2-(trifluoromethyl)pyrimidin-4-yl)oxy)piperidine-1-carboxylate], for which the half-maximal effective concentration (EC50) at human TGR5 receptor is 100 to 999 nM; at mouse TGR5 receptor it was under 100 nM.

`N#Cc1ccc(CCNC(=O)[C@@H]2CCCN2c2cc(Nc3ccncc3)nc(C(F)(F)F)n2)cc1` [Compound 14]: the EC50 at human TGR5 receptor and on mouse TGR5 receptor was 1000 to 30000 nM throughout.

Turning to `N#Cc1ccc(CCNC(=O)[C@@H]2CCCN2c2cc(-c3ccoc3)nc(C(F)(F)F)n2)cc1` [Compound 164, (S)-N-(4-cyanophenethyl)-1-(6-(furan-3-yl)-2-(trifluoromethyl)pyrimidin-4-yl)pyrrolidine-2-carboxamide], the results for the EC50 on human TGR5 receptor and at mouse TGR5 receptor were 1000 to 30000 nM and 100 to 999 nM, respectively.

Regarding `CN(C)CC1CCN(c2cc(N3CC[C@H]3C(=O)NCCc3ccc(C#N)cc3)nc(C(F)(F)F)n2)CC1` [Compound 221, (S)-N-(4-cyanophenethyl)-1-(6-(4-((dimethylamino)methyl)piperidin-1-yl)-2-(trifluoromethyl)pyrimidin-4-yl)azetidine-2-carboxamide], the 50% effective concentration (EC50) is 100 to 999 nM at human TGR5 receptor and under 100 nM at mouse TGR5 receptor.

Turning to `CC(C)(C)OC(=O)NC1CCN(c2cc(N3CCC[C@H]3C(=O)NCCc3ccc(C#N)cc3)nc(C(F)(F)F)n2)CC1` [Compound 16], the EC50 at human TGR5 receptor is 100 to 999 nM; at mouse TGR5 receptor it was under 100 nM.

Turning to `CS(=O)(=O)Nc1cccc(-c2cc(N3CCC[C@H]3C(=O)NCCc3ccc(C#N)cc3)nc(C(F)(F)F)n2)c1` [Compound 153, (S)-N-(4-cyanophenethyl)-1-(6-(3-(methylsulfonamido)phenyl)-2-(trifluoromethyl)pyrimidin-4-yl)pyrrolidine-2-carboxamide], the EC50 at human TGR5 receptor fell in the range of 1000 to 30000 nM; on mouse TGR5 receptor it was 100 to 999 nM.

Take `N#Cc1ccc(CCNC(=O)[C@@H]2CCCN2c2cc(NCc3ccncc3)nc(C(F)(F)F)n2)cc1` [Compound 13]: the EC50 at human TGR5 receptor is 100 to 999 nM; at mouse TGR5 receptor it was under 100 nM.

For the compound `COc1ccc(-c2cc(N3CCC[C@H]3C(=O)NCCc3ccc(C#N)cc3)nc(C(F)(F)F)n2)cc1OC` [Compound 149, (S)-N-(4-cyanophenethyl)-1-(6-(3,4-dimethoxyphenyl)-2-(trifluoromethyl)pyrimidin-4-yl)pyrrolidine-2-carboxamide], the half-maximal effective concentration (EC50) at human TGR5 receptor and at mouse TGR5 receptor was 100 to 999 nM each time.

Regarding `CN(C)c1cc(N2CCC[C@@H](C(=O)NCCc3ccc(C(F)(F)F)cc3)C2)nc(C(F)(F)F)n1` [Compound 322, (R)-1-(6-(dimethylamino)-2-(trifluoromethyl)pyrimidin-4-yl)-N-(4-(trifluoromethyl)phenethyl)piperidine-3-carboxamide], the concentration for a half-maximal effect (EC50) was 100 to 999 nM on human TGR5 receptor and 1000 to 30000 nM on mouse TGR5 receptor.

With `N#Cc1ccc(CCNC(=O)[C@@H]2CCCN2c2cc(-c3ccc(CN)cc3)nc(C(F)(F)F)n2)cc1` [Compound 185, (S)-1-(6-(4-(aminomethyl)phenyl)-2-(trifluoromethyl)pyrimidin-4-yl)-N-(4-cyanophenethyl)pyrrolidine-2-carboxamide], the EC50 at human TGR5 receptor and at mouse TGR5 receptor was 100 to 999 nM in each case.

In the case of `N#Cc1ccc(CCNC(=O)[C@@H]2CCCN2c2cc(-c3ccc(S(=O)(=O)N4CCOCC4)cc3)nc(C(F)(F)F)n2)cc1` [Compound 154, (S)-N-(4-cyanophenethyl)-1-(6-(4-(morpholinosulfonyl)phenyl)-2-(trifluoromethyl)pyrimidin-4-yl)pyrrolidine-2-carboxamide], the figures for the EC50 at human TGR5 receptor and on mouse TGR5 receptor were 1000 to 30000 nM and 100 to 999 nM, respectively.

As to `N#Cc1ccc(CCNC(=O)[C@@H]2CCCN(c3cc(OC4CCOCC4)nc(C(F)(F)F)n3)C2)cc1` [Compound 334], the 50% effective concentration (EC50) at human TGR5 receptor and at mouse TGR5 receptor was under 100 nM throughout.

On to `COc1cnccc1-c1cc(N2CCC[C@H]2C(=O)NCCc2ccc(C#N)cc2)nc(C(F)(F)F)n1` [Compound 159, (S)-N-(4-cyanophenethyl)-1-(6-(3-methoxypyridin-4-yl)-2-(trifluoromethyl)pyrimidin-4-yl)pyrrolidine-2-carboxamide], for which the half-maximal effective concentration (EC50) is 1000 to 30000 nM at human TGR5 receptor and under 100 nM on mouse TGR5 receptor.

As for `O=C(NCCc1ccc(C(F)(F)F)cc1)[C@@H]1CCCN(c2cc(NCCN3CCOCC3)nc(C(F)(F)F)n2)C1` [Compound 325, (R)-1-(6-((2-morpholinoethyl)amino)-2-(trifluoromethyl)pyrimidin-4-yl)-N-(4-(trifluoromethyl)phenethyl)-piperidine-3-carboxamide], the EC50 on human TGR5 receptor is 100 to 999 nM; on mouse TGR5 receptor it was under 100 nM.

Regarding `N#Cc1ccc(CCNC(=O)[C@@H]2CCCN2c2cc(-c3ccncc3F)nc(C(F)(F)F)n2)cc1` [Compound 155, (S)-N-(4-cyanophenethyl)-1-(6-(3-fluoropyridin-4-yl)-2-(trifluoromethyl)pyrimidin-4-yl)pyrrolidine-2-carboxamide], the concentration giving a half-maximal response (EC50) on human TGR5 receptor and at mouse TGR5 receptor was 100 to 999 nM each time.

In the case of `N#Cc1ccc(CCNC(=O)[C@@H]2CCCN2c2cc(-c3ccc(C#N)cc3)nc(C(F)(F)F)n2)cc1` [Compound 145, (S)-N-(4-cyanophenethyl)-1-(6-(4-cyanophenyl)-2-(trifluoromethyl)pyrimidin-4-yl)pyrrolidine-2-carboxamide], the EC50 at human TGR5 receptor was 100 to 999 nM; at mouse TGR5 receptor, under 100 nM.

With `COc1ccc(-c2cc(N3CCC[C@H]3C(=O)NCCc3ccc(C#N)cc3)nc(C(F)(F)F)n2)cc1` [Compound 148, (S)-N-(4-cyanophenethyl)-1-(6-(4-methoxyphenyl)-2-(trifluoromethyl)pyrimidin-4-yl)pyrrolidine-2-carboxamide], the concentration giving a half-maximal response (EC50) at human TGR5 receptor is 100 to 999 nM; on mouse TGR5 receptor, under 100 nM.

For `Nc1cc(N2CCC[C@@H](C(=O)NCCc3ccc(C(F)(F)F)cc3)C2)nc(C(F)(F)F)n1` [Compound 320, (R)-1-(6-amino-2-(trifluoromethyl)pyrimidin-4-yl)-N-(4-(trifluoromethyl)phenethyl)piperidine-3-carboxamide], the 50% effective concentration (EC50) at human TGR5 receptor and on mouse TGR5 receptor was 100 to 999 nM throughout.

Turning to `O=C(NCCc1ccc(C(F)(F)F)cc1)[C@@H]1CCCN1c1cc(NCc2ccncc2)nc(C(F)(F)F)n1` [Compound 3], the results for the half-maximal effective concentration (EC50) on human TGR5 receptor and at mouse TGR5 receptor were 1000 to 30000 nM and 100 to 999 nM, respectively.

For `N#Cc1ccc(CCNC(=O)[C@@H]2CCCN2c2cc(-c3ccncc3)nc(C(F)(F)F)n2)cc1` [Compound 141, (S)-N-(4-cyanophenethyl)-1-(6-(pyridin-4-yl)-2-(trifluoromethyl)pyrimidin-4-yl)pyrrolidine-2-carboxamide], the EC50 on human TGR5 receptor and at mouse TGR5 receptor was 100 to 999 nM throughout.

As a reminder, the EC50 is the concentration that produces a half-maximal response.
